Measured values taken from US8551921B2, “Method for determining the toxicity of an environmental or chemical sample” (priority 2000, dated 2013).
Values joined by “and” are separate entries in the source; they are usually repeats but may differ in a detail not shown here. Identical values can stand only once. Counter-ions that a name gives are not always drawn.

Assays:
[1] = test system: Aeromonas hydriphila HG3 (RV 5.1); conditions: Microbial Toxic Concentration; incubation time 16 h
Description: (§1) • dispense 150 μl of growth medium with indicator in each well • add a concentration gradient of the chemical to be tested to rows B-H in a MARA plate (i.e. an indicator device according to the present invention) • incubate for 16 h • read absorbance values; and • analyse with software.
(§2) Microbial responses to different chemicals was estimated by kinetic measurements of their growth using the Labsystem automated IEMS reader. A computer software that could monitor incubation temperatures, reading intervals, and automatically transfer OD data to a computer was developed. A growth medium containing 0.05% peptone, 0.011% bromothymol blue (BTB), 1% sodium chloride and 0.3% glucose was added to all wells. The glucose acts as a carbon source, and during growth the microorganism will break down the glucose and produce acids, that will turn the initially blue indicator to yellow. Each microplate contains 12 columns and 8 rows, and thus in each plate, 11 lyophilized microbial strains were used (one for each column, the 12th column was used as negative control). […] In order to avoid drying out of the plates during the incubation, one drop of sterile mineral oil was added to each well. The plate was then incubated in the IEMS spectrophotometer and the absorbance value from each well was measured every second hour during 48 h.
(§3) The overall toxicity of the chemical compound can be described either as the mean of all 11 MTC values (shown in column 12), or as the minimum value for all 11 microbial strains used in the assay (marked with bold in the table).

[2] = test system: JG1 (strain of marine origin); conditions: Microbial Toxic Concentration; incubation time 16 h
Description: as §1, §2, §3

[3] = test system: JG2 (strain of marine origin); conditions: Microbial Toxic Concentration; incubation time 16 h
Description: as §1, §2, §3

[4] = test system: JG4 (strain of marine origin); conditions: Microbial Toxic Concentration; incubation time 16 h
Description: as §1, §2, §3

[5] = test system: ObanF; conditions: Microbial Toxic Concentration; incubation time 16 h
Description: as §1, §2, §3

[6] = test system: β-proteobacterium A22 (Kalmar 200); experiment: MARA indicator device toxic fingerprint, microorganism no. 5; conditions: Microbial Toxic Concentration; incubation time 16 h
Description: as §1, §2, §3

[7] = test system: microorganism no. 7; experiment: MARA indicator device toxic fingerprint, microorganism no. 7; conditions: Microbial Toxic Concentration; incubation time 16 h
Description: as §1, §2, §3

[8] = test system: E. coli MZ 480; experiment: MARA indicator device toxic fingerprint, microorganism no. 8; conditions: Microbial Toxic Concentration; incubation time 16 h
Description: as §1, §2, §3

[9] = test system: Staphylococcus epidermidis (Karin12); experiment: MARA indicator device toxic fingerprint, microorganism no. 11; conditions: Microbial Toxic Concentration; incubation time 16 h
Description: as §1, §2, §3

[10] = test system: 11 different microbial strains; conditions: for Inhibitory concentrations by method: MARA MTCmin: MTC value of the strain showing the highest sensitivity; for Inhibitory concentrations by method: MARA MTCmean: mean MTC for the 11 microbial strains; for Toxic fingerprint: MTC value, Mean: mean of all 11 MTC values
Description: as §1, §2, §3
Concentrations are given in mg/ml.

[11] = test system: Daphnia; conditions: IC50-values, established assay; cited from earlier work
[12] = test system: E. coli; conditions: IC50-values, established assay; cited from earlier work
[13] = test system: Photobacterium phosphoreum; conditions: IC50-values, established assay; cited from earlier work
[14] = test system: Saccaromyces ceriviciae (bakers yeast); conditions: Microbial Toxic Concentration; incubation time 16 h
Description: as §1, §2, §3

[15] = test system: JG3 (strain of marine origin); experiment: MARA indicator device toxic fingerprint, microorganism no. 3; conditions: Microbial Toxic Concentration; incubation time 16 h
Description: as §1, §2, §3

Oc1c(Cl)c(Cl)c(Cl)c(Cl)c1Cl [Penta Chloro Phenol]
Toxic fingerprint: MTC value for microorganism no. 6 [1]: 0.003 and 0.006 | Toxic fingerprint: MTC value for microorganism no. 1 [2]: 0.006 and 0.004 | Toxic fingerprint: MTC value for microorganism no. 2 [3]: 0.001 | Toxic fingerprint: MTC value for microorganism no. 4 [4]: 0.009 and 0.010 | Toxic fingerprint: MTC value for microorganism no. 9 [5]: 0.004 and 0.003 | Toxic fingerprint: MTC value for microorganism no. 5 [6]: 0.007 and 0.004 | Toxic fingerprint: MTC value for microorganism no. 7 [7]: 0.005 and 0.007 | Toxic fingerprint: MTC value for microorganism no. 8 [8]: 0.005 and 0.006 | Toxic fingerprint: MTC value for microorganism no. 11 [9]: 0.001 | Inhibitory concentrations by method: MARA MTCmin [10]: 0.001 mg/mL | Inhibitory concentrations by method: MARA MTCmean [10]: 0.005 mg/mL | Toxic fingerprint: MTC value, Mean [10]: 0.004 and 0.005 | Inhibitory concentrations by method: Daphnia [11]: 0.001 mg/mL | Inhibitory concentrations by method: E. coli [12]: 0.010 mg/mL | Inhibitory concentrations by method: Microtox [13]: 0.001 mg/mL

O=S(=O)([O-])[O-].[Li+].[Li+] [Lithium Sulphate]
Toxic fingerprint: MTC value for microorganism no. 6 [1]: 10.600 and 8.490 | Toxic fingerprint: MTC value for microorganism no. 1 [2]: 3.700 and 4.780 | Toxic fingerprint: MTC value for microorganism no. 2 [3]: 6.300 and 7.170 | Toxic fingerprint: MTC value for microorganism no. 4 [4]: 4.590 and 7.950 | Toxic fingerprint: MTC value for microorganism no. 9 [5]: 23.400 and 17.500 | Toxic fingerprint: MTC value for microorganism no. 10 [14]: 2.650 and 3.570 | Toxic fingerprint: MTC value for microorganism no. 3 [15]: 12.200 and 12.700 | Toxic fingerprint: MTC value for microorganism no. 5 [6]: 14.500 and 10.000 | Toxic fingerprint: MTC value for microorganism no. 8 [8]: 41.800 and 25.400 | Toxic fingerprint: MTC value for microorganism no. 11 [9]: 22.400 and 15.300 | Inhibitory concentrations by method: MARA MTCmin [10]: 3.11 mg/mL | Inhibitory concentrations by method: MARA MTCmean [10]: 11.330 mg/mL | Toxic fingerprint: MTC value, Mean [10]: 9.960 and 12.700 | Inhibitory concentrations by method: Daphnia [11]: 0.033 mg/mL | Inhibitory concentrations by method: E. coli [12]: 67.764 mg/mL | Inhibitory concentrations by method: Microtox [13]: 25.763 mg/mL

COc1ccc(CCN(C)CCCC(C#N)(c2ccc(OC)c(OC)c2)C(C)C)cc1OC (stereo not drawn) [Verapamil HCl]
Toxic fingerprint: MTC value for microorganism no. 6 [1]: 1.090 | Toxic fingerprint: MTC value for microorganism no. 1 [2]: 0.326 | Toxic fingerprint: MTC value for microorganism no. 2 [3]: 0.247 | Toxic fingerprint: MTC value for microorganism no. 4 [4]: 3.100 | Toxic fingerprint: MTC value for microorganism no. 9 [5]: 0.510 | Toxic fingerprint: MTC value for microorganism no. 10 [14]: 0.877 | Toxic fingerprint: MTC value for microorganism no. 3 [15]: 0.128 | Toxic fingerprint: MTC value for microorganism no. 5 [6]: 0.591 | Toxic fingerprint: MTC value for microorganism no. 7 [7]: 2.950 | Toxic fingerprint: MTC value for microorganism no. 8 [8]: 0.360 | Toxic fingerprint: MTC value for microorganism no. 11 [9]: 0.371 | Inhibitory concentrations by method: MARA MTCmin [10]: 0.360 mg/mL | Inhibitory concentrations by method: MARA MTCmean [10]: 0.811 mg/mL | Toxic fingerprint: MTC value, Mean [10]: 0.811 | Inhibitory concentrations by method: Daphnia [11]: 0.055 mg/mL | Inhibitory concentrations by method: E. coli [12]: 0.834 mg/mL | Inhibitory concentrations by method: Microtox [13]: 0.438 mg/mL

Kinidin sulphate
Toxic fingerprint: MTC value for microorganism no. 6 [1]: 0.099 and 0.141 | Toxic fingerprint: MTC value for microorganism no. 1 [2]: 0.108 and 0.102 | Toxic fingerprint: MTC value for microorganism no. 2 [3]: 0.053 and 0.076 | Toxic fingerprint: MTC value for microorganism no. 4 [4]: 0.243 and 0.233 | Toxic fingerprint: MTC value for microorganism no. 9 [5]: 0.254 and 0.329 | Toxic fingerprint: MTC value for microorganism no. 10 [14]: 0.091 and 0.072 | Toxic fingerprint: MTC value for microorganism no. 3 [15]: 0.113 and 0.104 | Toxic fingerprint: MTC value for microorganism no. 7 [7]: 0.138 and 0.275 | Toxic fingerprint: MTC value for microorganism no. 11 [9]: 0.088 and 0.085 | Inhibitory concentrations by method: MARA MTCmin [10]: 0.087 mg/mL | Inhibitory concentrations by method: MARA MTCmean [10]: 0.148 mg/mL | Toxic fingerprint: MTC value, Mean [10]: 0.150 and 0.145 | Inhibitory concentrations by method: Daphnia [11]: 0.062 mg/mL | Inhibitory concentrations by method: E. coli [12]: 1.009 mg/mL | Inhibitory concentrations by method: Microtox [13]: 0.092 mg/mL
